From patent US12180198B2, “Ribocil C antibiotics effective for Gram-negative pathogens” (THE BOARD OF TRUSTEES OF THE UNIVERSITY OF ILLINOIS, priority 2018, dated 2024)
Converted amounts (≈) assume the structure as drawn. Where a name gives a salt, the structure may show the parent alone. Read-outs that look alike come from different tables or passages of the source.

How the values were obtained:
Format in all cases: cell-based
H. sapiens IMR-90 = experiment: Cell viability, Alamar Blue
Method: Cell culture. IMR90 cells were obtained from ATCC. IMR90 cells were grown in EMEM with 10% fetal bovine serum (Gemini Benchmark, Cat #100-106), 100 U/mL penicillin, and 100 μg/mL streptomycin. All cells were cultured at 37° C. in a 5% CO2 environment. Media was prepared by the University of Illinois School of Chemical Sciences Cell Media Facility. Sex and age of cell lines: IMR90 ([…]).
Cell viability. Cells seeded (IMR90: 5,000 cells/well) a 96-well plate (Greiner Bio-One, Cat #655180) and were allowed to attach overnight. Cells were treated with investigational compounds in DMSO (30 μM, 1% DMSO final, 100 μL/well). Raptinal (100 μM) was used as a dead control. After 24 h post-treatment, media was exchanged with compound-free media. After 72 h post-treatment, cell viability was assessed using the Alamar Blue method. Stock Alamar Blue solution [10 μL, 440 μM resazurin (Sigma-Aldrich, Cat #R7017) in sterile 1×PBS] was added to each well, and plate was incubated […]. Conversion of Alamar Blue was measured with plate reader (SpectraMax M3, Molecular Devices) by fluorescence (ex 555 nm, em 585 nm, cutoff 570 nm, autogain). Percent death was determined by normalizing to DMSO-treated cells and raptinal-treated cells.

E. coli BAA-2471 = experiment: MIC, micro-dilution broth method; conditions: Escherichia coli, BAA2471
Method in brief: (§1)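 MICs were determined by CLSI broth micro-dilution in cation-adjusted Mueller-Hinton broth, with all testing done in biological triplicate. Values are reported in […].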

A. baumannii KB357 = experiment: MIC, micro-dilution broth method; conditions: Acinetobacter baumannii
Method in brief: as §1

E. cloacae BAA-2468 = experiment: MIC, micro-dilution broth method; conditions: Enterobacter cloacae, BAA2468
Method in brief: as §1

K. pneumoniae BAA-2472 = experiment: MIC, micro-dilution broth method; conditions: Klebsiella pneumoniae, BAA2472
Method in brief: as §1

E. coli ΔtolC JW5503 = experiment: MIC, micro-dilution broth method; conditions: Escherichia coli
Method in brief: as §1

E. coli AR-0346 = experiment: MIC, micro-dilution broth method; conditions: Escherichia coli, AR0346
Method in brief: as §1

E. cloacae BAA-2341 = experiment: MIC, micro-dilution broth method; conditions: Enterobacter cloacae, BAA2341
Method in brief: as §1

K. pneumoniae M67198 = experiment: MIC, micro-dilution broth method; conditions: Klebsiella pneumoniae
Method in brief: as §1

E. cloacae S28901.1 = experiment: MIC, micro-dilution broth method; conditions: Enterobacter cloacae
Method in brief: as §1

S. aureus ATCC 29213 = experiment: MIC, micro-dilution broth method; conditions: for increase in MIC in the presence of serum: S. aureus ATCC 29213, +50% human serum vs none
E. coli AR-0349 = experiment: MIC, micro-dilution broth method; conditions: Escherichia coli, AR0349
Method in brief: as §1

K. pneumoniae M14723 = experiment: MIC, micro-dilution broth method; conditions: Klebsiella pneumoniae
Method in brief: as §1

K. pneumoniae BAA-1705 = experiment: MIC, micro-dilution broth method; conditions: Klebsiella pneumoniae, BAA1705
Method in brief: as §1

A. baumannii M13100 = experiment: MIC, micro-dilution broth method; conditions: Acinetobacter baumannii
Method in brief: as §1

A. baumannii W41979 = experiment: MIC, micro-dilution broth method; conditions: Acinetobacter baumannii
Method in brief: as §1

E. coli BAA-2469 = experiment: MIC, micro-dilution broth method; conditions: Escherichia coli, BAA2469
Method in brief: as §1

K. pneumoniae BAA-2473 = experiment: MIC, micro-dilution broth method; conditions: Klebsiella pneumoniae, BAA2473
Method in brief: as §1

E. coli ΔrfaC JW3596 = experiment: MIC, micro-dilution broth method; conditions: Escherichia coli
Method in brief: as §1

K. pneumoniae BAA-2342 = experiment: MIC, micro-dilution broth method; conditions: Klebsiella pneumoniae, BAA2342
Method in brief: as §1

A. baumannii KB343 = experiment: MIC, micro-dilution broth method; conditions: Acinetobacter baumannii
Method in brief: as §1

E. coli MG1655 = experiment: MIC, micro-dilution broth method; conditions: Escherichia coli
Method in brief: as §1

K. pneumoniae S47889 = experiment: MIC, micro-dilution broth method; conditions: Klebsiella pneumoniae
Method in brief: as §1

E. coli F20987 = experiment: MIC, micro-dilution broth method; conditions: Escherichia coli
Method in brief: as §1

[1] = system: Gram-negative ESKAPE pathogens and E. coli; experiment: MIC, micro-dilution broth method (text summary)
[2] = system: E. cloacae, K. pneumoniae, and A. baumannii; experiment: MIC, micro-dilution broth method (text summary); conditions: strains of E. cloacae

Cc1c(CN(C)C(=O)/C=C/c2cnc3c(c2)CCC(=O)N3)oc2ccccc12 [Debio-1452, (E)-N-methyl-N-((3-methylbenzofuran-2-yl)methyl)-3-(7-oxo-5,6,7,8-tetrahydro-1,8-naphthyridin-3-yl)acrylamide, reference compound] was tested. Which inhibition at 30 µM (H. sapiens IMR-90; H. sapiens IMR-90, 30 μM, 24 h exposure, viability at 72 h, read-out: % inhibition at 30 μM) did it give?
The inhibition at 30 µM was 16%.

And the MIC (E. coli BAA-2471; E. coli BAA-2471, read-out: MIC)?
The MIC was 8 µg/mL (≈ 21.3 µM).

And the MIC (A. baumannii KB357; A. baumannii KB357, read-out: MIC)?
The MIC was over 32 µg/mL.

And the MIC (E. cloacae BAA-2468; E. cloacae BAA-2468, read-out: MIC)?
Its MIC is over 32 µg/mL.

What about the MIC (K. pneumoniae BAA-2472; K. pneumoniae BAA-2472, read-out: MIC) of the same compound?
Its MIC is over 32 µg/mL.

And the MIC (E. coli ΔtolC JW5503)?
The MIC was 0.031 µg/mL (≈ 0.0826 µM).

What about the MIC (E. coli AR-0346; E. coli AR-0346, read-out: MIC) of the same compound?
Its MIC is over 32 µg/mL.

What about the MIC (E. cloacae BAA-2341; E. cloacae BAA-2341, read-out: MIC) of the same compound?
Its MIC is over 32 µg/mL.

And the MIC (K. pneumoniae M67198; K. pneumoniae M67198, read-out: MIC)?
Its MIC is over 32 µg/mL.

What about the MIC (E. cloacae S28901.1; E. cloacae S28901.1, read-out: MIC) of the same compound?
Its MIC is over 32 µg/mL.

What about the MIC (S. aureus ATCC 29213; S. aureus ATCC 29213) of the same compound?
The MIC was 0.008 to 0.016 µg/mL.

And the “increase in MIC in the presence of serum” value (S. aureus ATCC 29213)?
Its value is 8 fold.

What about the MIC (S. aureus ATCC 29213; Staphylococcus aureus, ATCC29213, S. aureus ATCC 29213 (+50% Human serum), read-out: MIC) of the same compound?
Its MIC is 0.125 µg/mL (≈ 0.333 µM).

And the MIC (S. aureus ATCC 29213; Staphylococcus aureus, ATCC29213, S. aureus ATCC 29213, read-out: MIC)?
Its MIC is 0.008 µg/mL (≈ 0.0213 µM).

What about the MIC (E. coli AR-0349; E. coli AR-0349, read-out: MIC) of the same compound?
Its MIC is 4 µg/mL (≈ 10.7 µM).

And the MIC (K. pneumoniae M14723; K. pneumoniae M14723, read-out: MIC)?
The MIC was over 32 µg/mL.

And the MIC (K. pneumoniae BAA-1705; K. pneumoniae BAA-1705, read-out: MIC)?
Its MIC is over 32 µg/mL.

What about the MIC (A. baumannii M13100; A. baumannii M13100, read-out: MIC) of the same compound?
Its MIC is over 32 µg/mL.

What about the MIC (A. baumannii W41979; A. baumannii W41979, read-out: MIC) of the same compound?
Its MIC is over 32 µg/mL.

What about the MIC (E. coli BAA-2469; E. coli BAA-2469, read-out: MIC) of the same compound?
Its MIC is 4 µg/mL (≈ 10.7 µM).

And the MIC (K. pneumoniae BAA-2473; K. pneumoniae BAA-2473, read-out: MIC)?
The MIC was over 32 µg/mL.

And the MIC (E. coli ΔrfaC JW3596)?
Its MIC is 0.5 µg/mL (≈ 1.33 µM).

What about the MIC (K. pneumoniae BAA-2342; K. pneumoniae BAA-2342, read-out: MIC) of the same compound?
Its MIC is over 32 µg/mL.

And the MIC (A. baumannii KB343; A. baumannii KB343, read-out: MIC)?
The MIC was over 32 µg/mL.

And the MIC (E. coli MG1655; E. coli MG1655, read-out: MIC)?
The MIC was over 32 µg/mL.

And the MIC (K. pneumoniae S47889; K. pneumoniae S47889, read-out: MIC)?
The MIC was over 32 µg/mL.

What about the MIC (E. coli F20987; E. coli F20987, read-out: MIC) of the same compound?
Its MIC is over 32 µg/mL.

And the MIC ([1]; Escherichia coli, Gram-negative ESKAPE pathogens and E. coli)?
Its MIC is over 32 µg/mL.

What about the “activity (in words)” value ([1]; Gram-negatives with intact outer membranes) of the same compound?
The value was “no activity”.

For Cc1c(CN(C)C(=O)/C=C/c2cnc3c(c2)CC(N)C(=O)N3)oc2ccccc12 (stereo not drawn) [Debio-1452-NH3, (E)-3-(6-amino-7-oxo-5,6,7,8-tetrahydro-1,8-naphthyridin-3-yl)-N-methyl-N-((3-methylbenzofuran-2-yl)methyl)acrylamide hydrochloride], which “toxicity to mammalian cells grown in culture (in words)” value (H. sapiens IMR-90; 24 hour exposures) is on record?
The value was “little toxicity”.

And the inhibition at 30 µM (H. sapiens IMR-90; Homo sapiens, IMR-90, read-out: % inhibition at 30 μM)?
Its inhibition at 30 µM is 30%.

And the MIC (E. coli BAA-2471)?
Its MIC is 4 µg/mL.

What about the MIC (A. baumannii KB357; KB357) of the same compound?
Its MIC is 64 µg/mL.

And the MIC (E. cloacae BAA-2468)?
Its MIC is 8 µg/mL.

What about the MIC (K. pneumoniae BAA-2472) of the same compound?
The MIC was 16 µg/mL.

What about the MIC (E. coli ΔtolC JW5503) of the same compound?
Its MIC is 0.062 µg/mL.

And the MIC (E. coli AR-0346)?
Its MIC is 8 µg/mL.

What about the MIC (E. cloacae BAA-2341) of the same compound?
Its MIC is 8 µg/mL.

And the MIC (K. pneumoniae M67198; M67198)?
Its MIC is 32 µg/mL.

What about the MIC (E. cloacae S28901.1; S28901.1) of the same compound?
Its MIC is 16 µg/mL.

And the “increase in MIC in the presence of serum” value (S. aureus ATCC 29213)?
The value was 2 fold.

What about the MIC (S. aureus ATCC 29213; Staphylococcus aureus, ATCC29213, S. aureus ATCC 29213) of the same compound?
The MIC was 0.03 µg/mL.

And the MIC (S. aureus ATCC 29213; Staphylococcus aureus, ATCC29213, S. aureus ATCC 29213 (+50% Human serum))?
The MIC was 0.062 µg/mL.

What about the MIC (E. coli AR-0349) of the same compound?
Its MIC is 2 µg/mL.

And the MIC (K. pneumoniae M14723; M14723)?
Its MIC is 16 µg/mL.

What about the MIC (K. pneumoniae BAA-1705) of the same compound?
The MIC was 8 µg/mL.

And the MIC (A. baumannii M13100; M13100)?
Its MIC is 16 µg/mL.

What about the MIC (A. baumannii W41979; W41979) of the same compound?
Its MIC is 4 µg/mL.

And the MIC (E. coli BAA-2469)?
Its MIC is 2 µg/mL.

What about the MIC (K. pneumoniae BAA-2473) of the same compound?
Its MIC is 16 µg/mL.

What about the MIC (E. coli ΔrfaC JW3596) of the same compound?
Its MIC is 0.25 µg/mL.

What about the MIC (K. pneumoniae BAA-2342) of the same compound?
Its MIC is 16 µg/mL.

What about the MIC (A. baumannii KB343; KB343) of the same compound?
The MIC was 64 µg/mL.

And the MIC (E. coli MG1655; MG1655)?
Its MIC is 4 µg/mL.

What about the MIC (K. pneumoniae S47889; S47889) of the same compound?
Its MIC is 8 µg/mL.

What about the MIC (E. coli F20987; F20987) of the same compound?
Its MIC is 4 µg/mL.

What about the MIC [2] of the same compound?
The MIC was 4 to 8 µg/mL.
